The values below are quoted from earlier work in patent US8945534B2, “Controlled activation of the reuterin-production machinery of Lactobacillus” (priority 2008, dated 2015).

This series has as its system Escherichia, Salmonella, Shigella, Proteus, Pseudomonas, Clostridium, Staphylococcus, Streptococcus, and Helicobacter pylori; several fungi and other …. Particulars: species representing all bacterial genera tested thus far; U.S. Pat. Nos. 5,439,678 etc.

With `O=CCCO` [Reuterin, 3-hydroxypropionaldehyde], the “inhibition of growth of microorganisms” value was “capable of inhibiting growth”.
